Results: US9187484B2 (Southern Research Institute, priority 2012, dated 2015)

Biological target: T1, LRRK2 (G2019S) (Homo sapiens, UniProt Q5S007, G2019S)
T1 construct: Recombinant GST-LRRK2 (delta970), purified from baculovirus infected insect cells (SF9); GST (N); host or cells: baculovirus infected insect cells (SF9)
Experiment: LRRK2 inhibition, radiometric kinase assay with recombinant GST-LRRK2 (delta970) and peptide substrate
Format: biochemical
Conditions: GST-LRRK2 (delta970) G2019S 30 nM, ATP ~52 μM (Km), 30 min at 30° C.
Procedure: Compounds were assessed for inhibition of LRRK2 inhibition using the following procedure.
Recombinant GST-LRRK2 (delta970), purified from baculovirus infected insect cells (SF9), at least 90% pure and either wild-type sequence or bearing the pathogenic G2019S mutation, was combined into a kinase buffer at 30 nM concentration. Kinase buffer consists of 50 mM Tris HCl pH 7.4, 1 mM EDTA, and 50 μM peptide substrate (amino acid sequence […]). Experimental compounds or control (no compound) were added at desired concentrations in DMSO and water, where final concentration of DMSO in kinase reactions was 0.1% for all drug concentrations. Activation buffer that consists of a final concentration in the reactions of 10 mM MgCl2 and ATP (˜92 μM for WT-LRRK2 reactions and ˜52 μM for G2019S-LRRK2, which represent respective Km ATP concentrations) were added to each reaction, in addition to 0.5 μCi of gamma-32-P-dATP per reaction. Reactions were incubated at 1400 RPM at 30° C. for 30 min. and then spotted in triplicate directly onto a slot-blot apparatus fitted with phospho-cellulose paper and allowed to dry. Each slot was then washed with 10 mM phosphoric acid buffer until beta-radiation could not be detected in eluted wash buffer, usually ˜1 mL per slot. Paper within each slot were excised and radiation measured by liquid scintillation.

T1 sequence (Q5S007 970-2527 G2019S limits assumed): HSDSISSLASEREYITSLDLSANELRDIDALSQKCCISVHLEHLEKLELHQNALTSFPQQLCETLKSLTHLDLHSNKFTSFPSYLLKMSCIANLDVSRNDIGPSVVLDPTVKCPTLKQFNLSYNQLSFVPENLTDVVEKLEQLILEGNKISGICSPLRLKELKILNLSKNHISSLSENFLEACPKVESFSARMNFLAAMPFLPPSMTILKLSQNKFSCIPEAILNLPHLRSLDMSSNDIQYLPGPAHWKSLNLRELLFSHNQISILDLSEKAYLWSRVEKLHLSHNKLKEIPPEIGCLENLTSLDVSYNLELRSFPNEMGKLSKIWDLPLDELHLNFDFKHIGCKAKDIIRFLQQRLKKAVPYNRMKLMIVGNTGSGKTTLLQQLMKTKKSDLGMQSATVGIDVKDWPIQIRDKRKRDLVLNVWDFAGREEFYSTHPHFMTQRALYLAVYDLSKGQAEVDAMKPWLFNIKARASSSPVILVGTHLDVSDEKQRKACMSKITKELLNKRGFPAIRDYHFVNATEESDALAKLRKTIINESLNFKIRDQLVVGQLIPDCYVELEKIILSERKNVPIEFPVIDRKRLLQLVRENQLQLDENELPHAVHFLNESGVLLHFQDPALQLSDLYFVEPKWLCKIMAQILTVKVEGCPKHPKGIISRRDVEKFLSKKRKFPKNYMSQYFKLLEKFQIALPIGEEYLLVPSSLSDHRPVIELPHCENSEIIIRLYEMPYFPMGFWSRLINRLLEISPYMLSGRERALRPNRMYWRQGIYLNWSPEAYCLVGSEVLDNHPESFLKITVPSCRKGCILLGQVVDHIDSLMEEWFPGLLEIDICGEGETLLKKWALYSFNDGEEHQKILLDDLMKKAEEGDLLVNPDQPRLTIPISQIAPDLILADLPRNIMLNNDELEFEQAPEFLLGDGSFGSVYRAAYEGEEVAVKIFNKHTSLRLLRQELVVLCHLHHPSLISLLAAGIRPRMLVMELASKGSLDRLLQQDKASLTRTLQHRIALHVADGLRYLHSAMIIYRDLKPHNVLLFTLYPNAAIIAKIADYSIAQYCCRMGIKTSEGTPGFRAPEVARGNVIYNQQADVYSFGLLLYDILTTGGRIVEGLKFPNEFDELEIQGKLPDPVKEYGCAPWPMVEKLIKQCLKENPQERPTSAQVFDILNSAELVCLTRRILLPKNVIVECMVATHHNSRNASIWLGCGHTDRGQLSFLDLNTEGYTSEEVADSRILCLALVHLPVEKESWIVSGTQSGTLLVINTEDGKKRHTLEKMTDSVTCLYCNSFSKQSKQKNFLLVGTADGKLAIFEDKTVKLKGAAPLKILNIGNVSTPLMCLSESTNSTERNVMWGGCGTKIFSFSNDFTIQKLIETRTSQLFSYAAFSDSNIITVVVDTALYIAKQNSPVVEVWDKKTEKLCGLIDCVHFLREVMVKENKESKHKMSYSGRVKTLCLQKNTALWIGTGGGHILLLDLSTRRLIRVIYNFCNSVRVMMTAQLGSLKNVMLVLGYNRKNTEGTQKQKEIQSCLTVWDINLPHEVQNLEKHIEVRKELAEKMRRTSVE

SMILES	IC50 [nM]
CCOC(=O)C(CC)Sc1ccc2nnc(-c3ccc(C(F)(F)F)cc3)n2n1 (stereo not shown) [Example 77, ethyl 2-((3-(4-(trifluoromethyl)phenyl)-[1,2,4]triazolo[4,3-b]pyridazin-6-yl)thio)butanoate]	≥ 5000
CC(Sc1ccc2nnc(-c3cscn3)n2n1)C(=O)N1CCCCC1 (stereo not shown) [Example 110, 1-(piperidin-1-yl)-2-((3-(thiazol-4-yl)-[1,2,4]triazolo[4,3-b]pyridazin-6-yl)thio)propan-1-one]	100 to 1000
CCC(Nc1ccc2nnc(-c3cccs3)n2n1)C(=O)N1CCCCC1 (stereo not shown) [Example 100, 1-(piperidin-1-yl)-2-((3-(thiophen-2-yl)-[1,2,4]triazolo[4,3-b]pyridazin-6-yl)amino)butan-1-one]	≥ 5000
O=C(O)CSc1ccc2nnc(-c3nccs3)n2n1 [Example 42, 2-((3-(thiazol-2-yl)-[1,2,4]triazolo[4,3-b]pyridazin-6-yl)thio)acetic acid]	≥ 5000
NC(=O)CSc1ccc2nnc(-c3ccc(F)cc3)n2n1 [Example 19, 2-((3-(4-fluorophenyl)-[1,2,4]triazolo[4,3-b]pyridazin-6-yl)thio)acetamide]	1000 to 5000
CCC(Sc1ccc2nnc(-c3ccc(F)cc3)n2n1)C(=O)Nc1ccccc1C(F)(F)F (stereo not shown) [Example 14, 2-((3-(4-fluorophenyl)-[1,2,4]triazolo[4,3-b]pyridazin-6-yl)thio)-N-(2-(trifluoromethyl)phenyl)butanamide]	≥ 5000
CCC(Sc1ccc2nnc(-c3cccs3)n2n1)C(=O)O (stereo not shown) [Example 18, 2-((3-(thiophen-2-yl)-[1,2,4]triazolo[4,3-b]pyridazin-6-yl)thio)butanoic acid]	100 to 1000
CCOC(=O)CSc1ccc2nnc(-c3ccncc3)n2n1 [Example 2, ethyl 2-((3-(pyridin-4-yl)-[1,2,4]triazolo[4,3-b]pyridazin-6-yl)thio)acetate]	≥ 5000
CCC(Oc1ccc2nnc(-c3cccs3)n2n1)C(N)=O (stereo not shown) [Example 84, 2-((3-(thiophen-2-yl)-[1,2,4]triazolo[4,3-b]pyridazin-6-yl)oxy)butanamide]	≥ 5000
CCC(Sc1ccc2nnc(-c3ccc(F)cc3)n2n1)C(=O)Nc1nccs1 (stereo not shown) [Example 7, 2-((3-(4-fluorophenyl)-[1,2,4]triazolo[4,3-b]pyridazin-6-yl)thio)-N-(thiazol-2-yl)butanamide]	≥ 5000
Cc1ccc(-c2nnc3ccc(SCC(=O)O)nn23)cc1 [Example 13, 2-((3-(p-tolyl)-[1,2,4]triazolo[4,3-b]pyridazin-6-yl)thio)acetic acid]	1000 to 5000
CCC(Sc1ccc2nnc(-c3ccccc3F)n2n1)C(=O)O (stereo not shown) [Example 55, 2-((3-(2-fluorophenyl)-[1,2,4]triazolo[4,3-b]pyridazin-6-yl)thio)butanoic acid]	100 to 1000
CCC(Sc1ccc2nnc(-c3cccs3)n2n1)C(=O)Nc1ccccc1 (stereo not shown) [Example 86, N-phenyl-2-((3-(thiophen-2-yl)-[1,2,4]triazolo[4,3-b]pyridazin-6-yl)thio)butanamide]	≥ 5000
CCC(Sc1ccc2nnc(-c3cccs3)n2n1)C(=O)N1CCCC1 (stereo not shown) [Example 46, 1-(pyrrolidin-1-yl)-2-((3-(thiophen-2-yl)-[1,2,4]triazolo[4,3-b]pyridazin-6-yl)thio)butan-1-one]	< 100
CCC(Oc1ccc2nnc(-c3cccs3)n2n1)C(=O)N1CCCCC1 (stereo not shown) [Example 85, 1-(piperidin-1-yl)-2-((3-(thiophen-2-yl)-[1,2,4]triazolo[4,3-b]pyridazin-6-yl)oxy)butan-1-one]	≥ 5000
O=C(CSc1ccc2nnc(-c3cccs3)n2n1)N1CCOCC1 [Example 24, 1-morpholino-2-((3-(thiophen-2-yl)-[1,2,4]triazolo[4,3-b]pyridazin-6-yl)thio)ethanone]	100 to 1000
CCC(Sc1ccc2nnc(-c3cccs3)n2n1)C(=O)N1CCCCCC1 (stereo not shown) [Example 50, 1-(azepan-1-yl)-2-((3-(thiophen-2-yl)-[1,2,4]triazolo[4,3-b]pyridazin-6-yl)thio)butan-1-one]	≥ 5000
CCC(Oc1ccc2nnc(-c3cccs3)n2n1)C(=O)O (stereo not shown) [Example 83, 2-((3-(thiophen-2-yl)-[1,2,4]triazolo[4,3-b]pyridazin-6-yl)oxy)butanoic acid]	≥ 5000

Second part, the molecule after the results:

IC50 [nM]	SMILES
1000 to 5000	CCC(Sc1ccc2nnc(-c3ccc(F)cc3)n2n1)C(=O)N1CCCCC1 (stereo not shown) [Example 9, 2-((3-(4-fluorophenyl)-[1,2,4]triazolo[4,3-b]pyridazin-6-yl)thio)-1-(piperidin-1-yl)butan-1-one]
100 to 1000	CCC(Sc1ccc2nnc(-c3ccc(OC)cc3)n2n1)C(N)=O (stereo not shown) [Example 66, 2-((3-(4-methoxyphenyl)-[1,2,4]triazolo[4,3-b]pyridazin-6-yl)thio)butanamide]
1000 to 5000	NC(=O)CS(=O)(=O)c1ccc2nnc(-c3cccs3)n2n1 [Example 91, 2-((3-(thiophen-2-yl)-[1,2,4]triazolo[4,3-b]pyridazin-6-yl)sulfonyl)acetamide]
1000 to 5000	CCc1ccc(-c2cnc3ccc(SC(CC)C(=O)O)nn23)s1 (stereo not shown) [Example 88, 2-((3-(5-ethylthiophen-2-yl)imidazo[1,2-b]pyridazin-6-yl)thio)butanoic acid]
1000 to 5000	NC(=O)CSc1ccc2nnc(-c3csc4ccccc34)n2n1 [Example 35, 2-((3-(benzo[b]thiophen-3-yl)-[1,2,4]triazolo[4,3-b]pyridazin-6-yl)thio)acetamide]
100 to 1000	Cc1ccc(-c2nnc3ccc(SCC(N)=O)nn23)s1 [Example 49, 2-((3-(5-methylthiophen-2-yl)-[1,2,4]triazolo[4,3-b]pyridazin-6-yl)thio)acetamide]
1000 to 5000	CCOC(=O)C(CC)Sc1ccc2nnc(-c3ccc(F)c(F)c3)n2n1 (stereo not shown) [Example 76, ethyl 2-((3-(3,4-difluorophenyl)-[1,2,4]triazolo[4,3-b]pyridazin-6-yl)thio)butanoate]
100 to 1000	O=C(CSc1ccc2nnc(-c3cccs3)n2n1)Nc1nccs1 [Example 23, N-(thiazol-2-yl)-2-((3-(thiophen-2-yl)-[1,2,4]triazolo[4,3-b]pyridazin-6-yl)thio)acetamide]
100 to 1000	CCC(Sc1ccc2nnc(-c3ccc(F)c(F)c3)n2n1)C(=O)N1CCCCC1 (stereo not shown) [Example 96, 2-((3-(3,4-difluorophenyl)-[1,2,4]triazolo[4,3-b]pyridazin-6-yl)thio)-1-(piperidin-1-yl)butan-1-one]
≥ 5000	O=C(O)CSc1ccc2nnc(-c3ccco3)n2n1 [Example 28, 2-((3-(furan-2-yl)-[1,2,4]triazolo[4,3-b]pyridazin-6-yl)thio)acetic acid]
≥ 5000	NC(=O)CSc1ccc2nnc(-c3cc4ccccc4s3)n2n1 [Example 29, 2-((3-(benzo[b]thiophen-2-yl)-[1,2,4]triazolo[4,3-b]pyridazin-6-yl)thio)acetamide]
100 to 1000	CCC(Sc1ccc2nnc(-c3ccc(OC)cc3)n2n1)C(=O)N1CCCCC1 (stereo not shown) [Example 67, 2-((3-(4-methoxyphenyl)-[1,2,4]triazolo[4,3-b]pyridazin-6-yl)thio)-1-(piperidin-1-yl)butan-1-one]
100 to 1000	O=C(CSc1ccc2nnc(-c3cccs3)n2n1)N1CCCCC1 [Example 11, 1-(piperidin-1-yl)-2-((3-(thiophen-2-yl)-[1,2,4]triazolo[4,3-b]pyridazin-6-yl)thio)ethanone]
